The record followed here is patent publication US7803801B2, “Aminopyridine compounds having Syk inhibitory activity” (Japan Tobacco, Inc., priority 2005, dated 2010).

The test system of assay [1] is cultured human mast cells. As to the kind of experiment: Degranulation inhibition test using cultured human mast cells (IgE cross-linking, β-Hexosaminidase release). It is filed as cell-based. The conditions noted are these: Mast cell; Tables 2-x, thiophene compounds B; cultured human mast cells; read-out: human degranulation ave. IC50. The method in brief:
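CD34+ cord-blood cells cultured ≥8 weeks with SCF/IL-6/IL-3; FcεRI primed 5 days with rhIL-4 (1 ng/mL) and hIgE (0.5 μg/mL). Compound (0.1% DMSO) preincubated 10 min at 37 °C, then anti-IgE (final 10 μg/mL) 30 min; released β-hexosaminidase read at 405 nm versus total lysate, IC50 (M).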

Assay [2] addresses GST-Syk Full Protein (human) (Homo sapiens, UniProt P43405). As to the kind of experiment: Syk kinase inhibition test (HTRF method). In kind it is biochemical. The conditions noted are these: Tables 2-x, thiophene compounds B; read-out: sykHTRK ave IC50. In a few lines:
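Human GST-Syk full-length (6.4 nM) phosphorylated biotin-EDPDYEWPSA-NH2 (250 nM) with 100 μM ATP in HEPES pH 7.0/MgCl2 buffer, 2% DMSO, 30 min at room temperature. EDTA stop, then HTRF detection (streptavidin-XL665, Eu anti-phosphotyrosine) after 1 h; 665/620 ratio read.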

Broadly, the IC50 is the point on the concentration scale where inhibition reaches its midpoint. As for `CO/N=C(\C)c1ccc(-c2cccc(Nc3cc(N(C)C)ncn3)n2)s1` [Compound B-32], the IC50 in assay [1] and in assay [2] was above 1000 nM each time.

As to `CO/N=C(\C)c1ccc(-c2cccc(Nc3cc(OC(C)C)ncn3)n2)s1` [Compound B-33], the IC50 was above 1000 nM in assay [1] and 100 to 1000 nM in assay [2].

For the molecule `Cc1ccnc(Nc2cccc(-c3ccc(NC(=O)OC(C)(C)C)s3)n2)c1` [Compound B-34], the IC50 was above 1000 nM in assay [1] and 100 to 1000 nM in assay [2].

As for `Cc1ccnc(Nc2cccc(-c3ccc(NC(=O)[C@H](C)O)s3)n2)c1` [Compound B-35], the IC50 in assay [1] and in assay [2] was 100 to 1000 nM throughout.

`COC(=O)c1sc(-c2cccc(Nc3cc(C)ccn3)n2)cc1C` [Compound B-36]: the IC50 was above 1000 nM in assay [1] and 100 to 1000 nM in assay [2].

Take `Cc1ccnc(Nc2cccc(-c3cc(C)c(C(=O)O)s3)n2)c1` [Compound B-37]: the IC50 was above 1000 nM in assay [1] and 100 to 1000 nM in assay [2].

`C/C(=N\OCCO)c1ccc(-c2cccc(Nc3cc(C)ccn3)n2)s1` [Compound B-38, 1-{5-[6-(4-methylpyridin-2-ylamino)pyridin-2-yl]thiophen-2-yl}ethanone O-(2-hydroxyethyl)oxime]: the IC50 in assay [1] is 100 to 1000 nM; in assay [2], below 100 nM.

Consider `Cc1ccnc(Nc2cccc(-c3ccc(C4=NC(C)(C)CO4)s3)n2)c1` [Compound B-39], for which the IC50 in assay [1] was above 1000 nM; in assay [2] it was 100 to 1000 nM.

With `CC(=O)c1sc(-c2cccc(Nc3cc(C)ccn3)n2)cc1C` [Compound B-40], the figures for the IC50 in assay [1] and in assay [2] were above 1000 nM and 100 to 1000 nM, respectively.

As for `Cc1ccnc(Nc2cccc(-c3ccc(C(=O)NCC(C)O)s3)n2)c1` (stereo not drawn) [Compound B-41], the IC50 in assay [1] and in assay [2] was 100 to 1000 nM throughout.

Turning to `CC(=NO)c1sc(-c2cccc(Nc3cc(C)ccn3)n2)cc1C` [Compound B-42], the IC50 in assay [1] is above 1000 nM; in assay [2], 100 to 1000 nM.

Consider `Cc1ccnc(Nc2cccc(-c3ccc(C(=O)NCCN)s3)n2)c1` [Compound B-43, N-(2-aminoethyl)-5-[6-(4-methylpyridin-2-ylamino)pyridin-2-yl]thiophene-2-carboxamide], for which the IC50 in assay [1] was above 1000 nM; in assay [2] it was below 100 nM.

For the molecule `COC(=O)c1cc(Br)nc(Nc2cccc(-c3ccc(C(C)=O)s3)n2)c1` [Compound B-44], the IC50 in assay [1] and in assay [2] was above 1000 nM throughout.

`Cc1ccnc(Nc2cccc(-c3ccc(C(O)C(C)C)s3)n2)c1` (stereo not drawn) [Compound B-45]: the IC50 was above 1000 nM in assay [1] and 100 to 1000 nM in assay [2].

For the molecule `COCCO/N=C(\C)c1ccc(-c2cccc(Nc3cc(C)ccn3)n2)s1` [Compound B-46], the figures for the IC50 in assay [1] and in assay [2] were above 1000 nM and 100 to 1000 nM, respectively.

With `CCC(O)c1ccc(-c2cccc(Nc3cc(C)ccn3)n2)s1` (stereo not drawn) [Compound B-47], the 50% inhibitory concentration (IC50) in assay [1] and in assay [2] was 100 to 1000 nM in each case.

For `CCC(=O)c1ccc(-c2cccc(Nc3cc(C)ccn3)n2)s1` [Compound B-48], the IC50 in assay [1] was above 1000 nM; in assay [2] it was 100 to 1000 nM.

Regarding `Cc1ccnc(Nc2cccc(-c3ccc(C(=O)C(C)C)s3)n2)c1` [Compound B-49], the IC50 in assay [1] was above 1000 nM; in assay [2], 100 to 1000 nM.

For `Cc1ccnc(Nc2cccc(-c3ccc(C(=NO)C(C)C)s3)n2)c1` [Compound B-50], the IC50 was above 1000 nM in assay [1] and 100 to 1000 nM in assay [2].

As to `CCC(=NO)c1ccc(-c2cccc(Nc3cc(C)ccn3)n2)s1` [Compound B-51, 1-{5-[6-(4-methylpyridin-2-ylamino)pyridin-2-yl]thiophen-2-yl}propan-1-one oxime], the IC50 in assay [1] was above 1000 nM; in assay [2], below 100 nM.

Consider `CCOC(=O)Cc1ccnc(Nc2cccc(-c3ccc(C(C)=O)s3)n2)c1` [Compound B-52, {2-[6-(5-acetylthiophen-2-yl)pyridin-2-ylamino]pyridin-4-yl}acetic acid ethyl ester], for which the 50% inhibitory concentration (IC50) in assay [1] was above 1000 nM; in assay [2] it was below 100 nM.

For the molecule `COC(=O)c1ccnc(Nc2cccc(-c3ccc(C(C)=O)s3)n2)c1` [Compound B-53, 2-[6-(5-acetylthiophen-2-yl)pyridin-2-ylamino]isonicotinic acid methyl ester], the results for the IC50 in assay [1] and in assay [2] were above 1000 nM and below 100 nM, respectively.

For the molecule `Cc1ccnc(Nc2cccc(-c3ccc(C(O)CCO)s3)n2)c1` (stereo not drawn) [Compound B-54], the IC50 in assay [1] and in assay [2] was 100 to 1000 nM throughout.

On to `CC(O)c1ccc(-c2cccc(Nc3cc(CCO)ccn3)n2)s1` (stereo not drawn) [Compound B-55, 1-(5-{6-[4-(2-hydroxyethyl)pyridin-2-ylamino]pyridin-2-yl}thiophen-2-yl)ethanol], for which the IC50 in assay [1] was 100 to 1000 nM; in assay [2] it was below 100 nM.

As for `CC(=O)c1ccc(-c2cccc(Nc3cc(CCO)ccn3)n2)s1` [Compound B-56], the IC50 in assay [1] and in assay [2] was 100 to 1000 nM in each case.

As to `Cc1ccnc(Nc2cccc(-c3ccc(C(=O)CCO)s3)n2)c1` [Compound B-57], the IC50 in assay [1] and in assay [2] was 100 to 1000 nM throughout.

As to `CC(=O)c1ccc(-c2cccc(Nc3cc(C(=O)O)ccn3)n2)s1` [Compound B-58], the IC50 in assay [1] and in assay [2] was above 1000 nM in each case.

For the molecule `Cc1ccnc(Nc2cccc(-c3ccc(C#N)s3)n2)c1` [Compound B-59], the figures for the IC50 in assay [1] and in assay [2] were above 1000 nM and 100 to 1000 nM, respectively.

On to `Cc1ccnc(Nc2cccc(-c3ccc(/C(N)=N/O)s3)n2)c1` [Compound B-60, N-hydroxy-5-[6-(4-methylpyridin-2-ylamino)pyridin-2-yl]thiophene-2-carboxyamidine], for which the 50% inhibitory concentration (IC50) is 100 to 1000 nM in assay [1] and below 100 nM in assay [2].

For `Cc1ccnc(Nc2cccc(-c3ccc(-c4noc(=O)[nH]4)s3)n2)c1` [Compound B-61], the IC50 in assay [1] is above 1000 nM; in assay [2], 100 to 1000 nM.

With `CC(=O)c1ccc(-c2cccc(Nc3nccc(C)c3[N+](=O)[O-])n2)s1` [Compound B-62], the concentration for half-maximal inhibition (IC50) in assay [1] and in assay [2] was above 1000 nM each time.

For `CC(=O)c1ccc(-c2cccc(Nc3cc(NC(C)C)ccn3)n2)s1` [Compound B-63], the IC50 in assay [1] and in assay [2] was above 1000 nM throughout.

`CONC(=O)c1ccc(-c2cccc(Nc3cc(C)ccn3)n2)s1` [Compound B-64]: the IC50 in assay [1] and in assay [2] was 100 to 1000 nM in each case.

In the case of `CC(=O)c1ccc(-c2cccc(Nc3cc(C(N)=O)ccn3)n2)s1` [Compound B-65], the IC50 was above 1000 nM in assay [1] and 100 to 1000 nM in assay [2].

For the molecule `Cc1ccnc(Nc2cccc(-c3ccc(-c4cc(C)no4)s3)n2)c1` [Compound B-66], the IC50 in assay [1] was above 1000 nM; in assay [2], 100 to 1000 nM.

In the case of `CC(=O)c1ccc(-c2cccc(Nc3ccccn3)n2)s1` [Compound B-67], the results for the IC50 in assay [1] and in assay [2] were above 1000 nM and 100 to 1000 nM, respectively.

With `CC(=O)c1csc(-c2cccc(Nc3cc(C)ccn3)n2)c1` [Compound B-68], the IC50 in assay [1] is above 1000 nM; in assay [2] it was 100 to 1000 nM.

`CO/N=C(\N)c1ccc(-c2cccc(Nc3cc(C)ccn3)n2)s1` [Compound B-69]: the IC50 in assay [1] and in assay [2] was 100 to 1000 nM each time.

Consider `Cc1ccnc(Nc2cccc(-c3cc(C)c(C(C)O)s3)n2)c1` (stereo not drawn) [Compound B-70], for which the half-inhibitory concentration (IC50) in assay [1] and in assay [2] was 100 to 1000 nM in each case.

For the molecule `Cc1ccnc(Nc2cccc(-c3ccc(CC(C)O)s3)n2)c1` (stereo not drawn) [Compound B-71], the IC50 in assay [1] and in assay [2] was 100 to 1000 nM each time.

On to `Cc1ccnc(Nc2cccc(-c3ccc(C(=O)NC(C)(C)CO)s3)n2)c1` [Compound B-72], for which the IC50 in assay [1] and in assay [2] was 100 to 1000 nM in each case.

With `CC(=O)c1ccc(-c2cccc(Nc3cc(OCCO)ccn3)n2)s1` [Compound B-73, 1-(5-{6-[4-(2-hydroxyethoxy)pyridin-2-ylamino]pyridin-2-yl}thiophen-2-yl)ethanone], the IC50 in assay [1] was 100 to 1000 nM; in assay [2] it was below 100 nM.

Consider `CC(=O)c1ccc(-c2cccc(Nc3cc(Cl)ccn3)n2)s1` [Compound B-74, 1-{5-[6-(4-chloropyridin-2-ylamino)pyridin-2-yl]thiophen-2-yl}ethanone], for which the IC50 is 100 to 1000 nM in assay [1] and below 100 nM in assay [2].

In the case of `C/C(=N\O)c1ccc(-c2cccc(Nc3cc(Cl)ccn3)n2)s1` [Compound B-75, 1-{5-[6-(4-chloropyridin-2-ylamino)pyridin-2-yl]thiophen-2-yl}ethanone oxime], the IC50 in assay [1] was 100 to 1000 nM; in assay [2], below 100 nM.

`CC(=O)c1ccc(-c2cccc(Nc3ccc(C)cn3)n2)s1` [Compound B-76]: the IC50 in assay [1] and in assay [2] was above 1000 nM in each case.

`CCOC(=O)c1cc(Nc2cc(C)ccn2)nc(-c2ccc(C(C)=O)s2)c1` [Compound B-77]: the IC50 in assay [1] and in assay [2] was above 1000 nM throughout.

Consider `CC(=O)c1ccc(-c2cccc(Nc3cc(C4(C)OCCO4)ccn3)n2)s1` [Compound B-78], for which the 50% inhibitory concentration (IC50) in assay [1] and in assay [2] was 100 to 1000 nM in each case.

Regarding `Cc1ccnc(Nc2cccc(-c3ccc(C(=O)N4CCC(O)CC4)s3)n2)c1` [Compound B-79], the IC50 in assay [1] and in assay [2] was 100 to 1000 nM throughout.

On to `Cc1ccnc(Nc2cccc(-c3ccc(C(=O)N4CCC[C@H]4CO)s3)n2)c1` [Compound B-80], for which the IC50 in assay [1] and in assay [2] was 100 to 1000 nM in each case.

On to `Cc1ccnc(Nc2cccc(-c3ccc(C(=O)N4CCOCC4)s3)n2)c1` [Compound B-81], for which the IC50 in assay [1] and in assay [2] was 100 to 1000 nM each time.

On to `CC(=O)c1ccc(-c2cccc(Nc3cc(OCCN(C)C)ccn3)n2)s1` [Compound B-82], for which the IC50 in assay [1] and in assay [2] was 100 to 1000 nM throughout.
